Reference: patent EP0113029B1, “Dicyclic hexapeptides, processes for their preparation and pharmaceutical compositions containing them” (Merck & Co., Inc., priority 1982, dated 1989)
Where two headings read alike, the source gives them in different places. Positions of bridges follow the written chain, without caps; N, C: chain ends. Non-standard residues stand in square brackets, D forms with d. Residues, ends and D or L forms follow the SMILES beside them.

Method: In order to stabilize the compound toward such decomposition it was treated in aqueous solution with 10-40 mole % of N-ethylmaleimide, a reagent which will react with free sulfhydryl groups that could catalyze disulfide interchange. The excess N-ethyl maleimide was separated by passage through a column of Sephadex° G-25 gel (superfine) eluted with 50% acetic acid.

## C[C@@H](O)[C@@H]1NC(=O)[C@H](CCCCN)NC(=O)[C@@H](Cc2c[nH]c3ccccc23)NC(=O)[C@H](Cc2ccccc2)NC(=O)[C@@H]2CSSC[C@H](NC1=O)C(=O)N2 [Example 6] (cyclo(CCF[dW]KT); disulfide 1-2)
After treatment in aqueous solution with 10-40 mole % of N-ethylmaleimide and reisolation
  stability with respect to polymerization: completely stable
Sample as isolated, in certain solvents or on extended storage
  stability with respect to polymerization: unstable with respect to polymerization
